Source: the supplement of paper PMC10307832

How the values were obtained:
Experiment in all cases: relative viability (nuclei count vs DMSO), 5 days (fraction); higher = more cells survive
CAL-12T = test system: CAL-12T
How it was run: (§1)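 Lung cancer cell lines in 1536-well plates were dosed by pin tool the day after seeding, either with one drug alone or with a fixed anchor-drug dose plus five library-drug doses (not always all listed) in √10 steps. After 5 days, cells were fixed and their nuclei stained in one step (final 0.05% Triton X-100, 1% formaldehyde, 1 ug/ml Hoechst), then counted on 4× images. Relative viability is the nuclei count in treated wells divided by that in vehicle wells. Values are medians of duplicate plates.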

EKVX = test system: EKVX
How it was run: as §1

H3255 = test system: H3255
How it was run: as §1

HCC-15 = test system: HCC-15
How it was run: as §1

HCC-827 = test system: HCC-827
How it was run: as §1

LCLC-97TM1 = test system: LCLC-97TM1
How it was run: as §1

LK-2 = test system: LK-2
How it was run: as §1

NCI-H1355 = test system: NCI-H1355
How it was run: as §1

NCI-H1563 = test system: NCI-H1563
How it was run: as §1

NCI-H1734 = test system: NCI-H1734
How it was run: as §1

NCI-H1755 = test system: NCI-H1755
How it was run: as §1

NCI-H1975 = test system: NCI-H1975
How it was run: as §1

NCI-H2228 = test system: NCI-H2228
How it was run: as §1

NCI-H2405 = test system: NCI-H2405
How it was run: as §1

NCI-H322M = test system: NCI-H322M
How it was run: as §1

NCI-H520 = test system: NCI-H520
How it was run: as §1

NCI-H661 = test system: NCI-H661
How it was run: as §1

PC-14 = test system: PC-14
How it was run: as §1

PC-3 [JPC-3] = test system: PC-3 [JPC-3]
How it was run: as §1

RERF-LC-KJ = test system: RERF-LC-KJ
How it was run: as §1

O=c1cc(N2CCOCC2)oc2c(-c3cccc4c3sc3ccccc34)cccc12 + Cc1nc(NC(=O)N2CCC[C@H]2C(N)=O)sc1-c1ccnc(C(C)(C)C(F)(F)F)c1 [Alpelisib] (partner 2 µM)
relative viability (CAL-12T; first compound 0.01 µM): 1.29 | relative viability (CAL-12T; first compound 0.03162 µM): 1.1 | relative viability (CAL-12T; first compound 0.1 µM): 1.13 | relative viability (CAL-12T; first compound 0.3162 µM): 1.27 | relative viability (CAL-12T; first compound 1 µM): 1.1 | relative viability (EKVX; first compound 0.01 µM): 0.88 | relative viability (EKVX; first compound 0.03162 µM): 0.868 | relative viability (EKVX; first compound 0.1 µM): 0.883 | relative viability (EKVX; first compound 0.3162 µM): 0.858 | relative viability (EKVX; first compound 1 µM): 0.824 | relative viability (H3255; first compound 0.01 µM): 0.681 | relative viability (H3255; first compound 0.03162 µM): 0.698 | relative viability (H3255; first compound 0.1 µM): 0.784 | relative viability (H3255; first compound 0.3162 µM): 0.685 | relative viability (H3255; first compound 1 µM): 0.768 | relative viability (HCC-15; first compound 0.01 µM): 0.87 | relative viability (HCC-15; first compound 0.03162 µM): 0.92 | relative viability (HCC-15; first compound 0.1 µM): 0.971 | relative viability (HCC-15; first compound 0.3162 µM): 0.859 | relative viability (HCC-15; first compound 1 µM): 0.828 | relative viability (HCC-827; first compound 0.01 µM): 0.918 | relative viability (HCC-827; first compound 0.03162 µM): 0.931 | relative viability (HCC-827; first compound 0.1 µM): 0.911 | relative viability (HCC-827; first compound 0.3162 µM): 0.947 | relative viability (HCC-827; first compound 1 µM): 0.914 | relative viability (LCLC-97TM1; first compound 0.01 µM): 0.287 | relative viability (LCLC-97TM1; first compound 0.03162 µM): 0.269 | relative viability (LCLC-97TM1; first compound 0.3162 µM): 0.201 | relative viability (LCLC-97TM1; first compound 1 µM): 0.244 | relative viability (LK-2; first compound 0.01 µM): 1.1 | relative viability (LK-2; first compound 0.03162 µM): 1.01 | relative viability (LK-2; first compound 0.1 µM): 1.14 | relative viability (LK-2; first compound 0.3162 µM): 1.03 | relative viability (LK-2; first compound 1 µM): 1.25 | relative viability (NCI-H1355; first compound 0.01 µM): 0.871 | relative viability (NCI-H1355; first compound 0.03162 µM): 0.855 | relative viability (NCI-H1355; first compound 0.3162 µM): 0.903 | relative viability (NCI-H1355; first compound 1 µM): 0.82 | relative viability (NCI-H1563; first compound 0.01 µM): 0.917 | relative viability (NCI-H1563; first compound 0.03162 µM): 0.858 | relative viability (NCI-H1563; first compound 0.1 µM): 0.93 | relative viability (NCI-H1563; first compound 0.3162 µM): 0.833 | relative viability (NCI-H1563; first compound 1 µM): 0.844 | relative viability (NCI-H1734; first compound 0.01 µM): 0.7 | relative viability (NCI-H1734; first compound 0.03162 µM): 0.727 | relative viability (NCI-H1734; first compound 0.1 µM): 0.686 | relative viability (NCI-H1734; first compound 0.3162 µM): 0.698 | relative viability (NCI-H1734; first compound 1 µM): 0.623 | relative viability (NCI-H1755; first compound 0.01 µM): 0.952 | relative viability (NCI-H1755; first compound 0.03162 µM): 0.901 | relative viability (NCI-H1755; first compound 0.1 µM): 0.984 | relative viability (NCI-H1755; first compound 0.3162 µM): 0.866 | relative viability (NCI-H1755; first compound 1 µM): 0.894 | relative viability (NCI-H1975; first compound 0.01 µM): 0.619 | relative viability (NCI-H1975; first compound 0.03162 µM): 0.623 | relative viability (NCI-H1975; first compound 0.1 µM): 0.649 | relative viability (NCI-H1975; first compound 0.3162 µM): 0.621 | relative viability (NCI-H1975; first compound 1 µM): 0.608 | relative viability (NCI-H2228; first compound 0.03162 µM): 0.928 | relative viability (NCI-H2228; first compound 0.1 µM): 0.713 | relative viability (NCI-H2228; first compound 0.3162 µM): 0.877 | relative viability (NCI-H2228; first compound 1 µM): 0.481 | relative viability (NCI-H2405; first compound 0.01 µM): 0.895 | relative viability (NCI-H2405; first compound 0.03162 µM): 0.885 | relative viability (NCI-H2405; first compound 0.1 µM): 0.838 | relative viability (NCI-H2405; first compound 0.3162 µM): 0.835 | relative viability (NCI-H2405; first compound 1 µM): 0.827 | relative viability (NCI-H322M; first compound 0.01 µM): 0.804 | relative viability (NCI-H322M; first compound 0.03162 µM): 0.721 | relative viability (NCI-H322M; first compound 0.3162 µM): 0.82 | relative viability (NCI-H322M; first compound 1 µM): 0.813 | relative viability (NCI-H520; first compound 0.01 µM): 0.997 | relative viability (NCI-H520; first compound 0.03162 µM): 1.09 | relative viability (NCI-H520; first compound 0.1 µM): 0.915 | relative viability (NCI-H520; first compound 0.3162 µM): 0.841 | relative viability (NCI-H520; first compound 1 µM): 0.996 | relative viability (NCI-H661; first compound 0.01 µM): 0.556 | relative viability (NCI-H661; first compound 0.03162 µM): 0.243 | relative viability (NCI-H661; first compound 0.1 µM): 0.591 | relative viability (NCI-H661; first compound 0.3162 µM): 0.606 | relative viability (NCI-H661; first compound 1 µM): 0.506 | relative viability (PC-14; first compound 0.01 µM): 0.987 | relative viability (PC-14; first compound 0.03162 µM): 0.891 | relative viability (PC-14; first compound 0.1 µM): 0.931 | relative viability (PC-14; first compound 0.3162 µM): 1.04 | relative viability (PC-14; first compound 1 µM): 0.978 | relative viability (PC-3 [JPC-3]; first compound 0.01 µM): 1.01 | relative viability (PC-3 [JPC-3]; first compound 0.03162 µM): 1.05 | relative viability (PC-3 [JPC-3]; first compound 0.1 µM): 1.02 | relative viability (PC-3 [JPC-3]; first compound 0.3162 µM): 1.02 | relative viability (PC-3 [JPC-3]; first compound 1 µM): 1.04 | relative viability (RERF-LC-KJ; first compound 0.01 µM): 0.834 | relative viability (RERF-LC-KJ; first compound 0.03162 µM): 0.892 | relative viability (RERF-LC-KJ; first compound 0.1 µM): 0.981 | relative viability (RERF-LC-KJ; first compound 0.3162 µM): 0.86 | relative viability (RERF-LC-KJ; first compound 1 µM): 0.9
